One assay has as its target CAAX prenyl protease 2 (Saccharomyces cerevisiae S288c, UniProt Q03530). In kind it is biochemical.
The next assay has as its target CAAX prenyl protease 1 (Saccharomyces cerevisiae S288c, UniProt P47154). The assay is described as follows: yeast CAAX protease Ste24 inhibition – biochemical, S. cerevisiae, plate reader, cherry-pick, dose response (AID 488815).
The target in assay [1] is Lysine-specific demethylase 4A (Homo sapiens, UniProt O75164). The assay is described as follows: inhibition of JMJD2A H3K9me3 demethylation – biochemical, DELFIA europium, cherry-picked samples, selectivity assay for GASC-1 inhibitor project, dose response (AID 488840).
Assay [2] addresses T1, Lysine-specific demethylase 4C (Homo sapiens, UniProt Q9H3R0).
T1 sequence (Q9H3R0 whole entry): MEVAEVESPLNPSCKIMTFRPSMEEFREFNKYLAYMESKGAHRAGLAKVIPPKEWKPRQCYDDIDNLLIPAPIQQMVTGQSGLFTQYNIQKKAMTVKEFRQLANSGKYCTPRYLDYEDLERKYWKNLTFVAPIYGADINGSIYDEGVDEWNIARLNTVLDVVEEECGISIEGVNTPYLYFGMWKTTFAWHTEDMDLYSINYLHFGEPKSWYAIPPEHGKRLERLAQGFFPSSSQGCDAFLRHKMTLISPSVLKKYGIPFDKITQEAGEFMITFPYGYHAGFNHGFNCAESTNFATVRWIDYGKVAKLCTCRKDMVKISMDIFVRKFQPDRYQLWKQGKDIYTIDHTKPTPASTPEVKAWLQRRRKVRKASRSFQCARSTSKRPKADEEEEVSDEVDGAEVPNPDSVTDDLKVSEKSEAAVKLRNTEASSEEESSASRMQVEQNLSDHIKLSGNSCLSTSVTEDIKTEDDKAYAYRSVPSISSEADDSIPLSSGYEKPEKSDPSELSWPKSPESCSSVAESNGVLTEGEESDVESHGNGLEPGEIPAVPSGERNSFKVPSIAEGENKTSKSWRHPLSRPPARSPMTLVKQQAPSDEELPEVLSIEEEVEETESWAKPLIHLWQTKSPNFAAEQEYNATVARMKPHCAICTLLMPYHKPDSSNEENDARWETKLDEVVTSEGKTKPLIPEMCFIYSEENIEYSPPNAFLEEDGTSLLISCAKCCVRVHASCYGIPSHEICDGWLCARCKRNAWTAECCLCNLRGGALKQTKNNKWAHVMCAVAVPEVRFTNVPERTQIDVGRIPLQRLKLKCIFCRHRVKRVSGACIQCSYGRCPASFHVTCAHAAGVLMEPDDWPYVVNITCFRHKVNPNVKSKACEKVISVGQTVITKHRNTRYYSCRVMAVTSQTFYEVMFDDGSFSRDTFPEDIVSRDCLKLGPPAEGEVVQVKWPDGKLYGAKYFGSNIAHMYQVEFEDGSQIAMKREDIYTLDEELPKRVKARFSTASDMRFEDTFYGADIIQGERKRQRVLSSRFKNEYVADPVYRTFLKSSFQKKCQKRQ
Kind of assay: inhibition of JMJD2C H3K9me3 demethylation – biochemical, DELFIA europium, cherry-picked samples, dose response (AID 488835). In kind it is functional.

A further assay relates to HEK293. Kind of assay: cells. To be noted: Homo sapiens.
A further assay concerns the target Tumor necrosis factor (Homo sapiens, UniProt P01375). The assay is described as follows: analog potency on TNFa NF-kB signaling – cell-based, revised, SAR follow-up (AID 2337). In kind it is functional.
Assay [3] has as its target Nucleotide-binding oligomerization domain-containing protein 2 (Homo sapiens, UniProt Q9HC29). Kind of assay: PubChem AID 2334. In kind it is functional.
The target of assay [4] is Nucleotide-binding oligomerization domain-containing protein 1 (Homo sapiens, UniProt Q9Y239). Kind of assay: blockers of NOD1 pathway activity – revised, SAR follow-up (AID 2333). In kind it is functional.
The subject of assay [5] is BJ. Kind of assay: growth inhibition of engineered Ras-driven BJ cells – cell-based, alamar blue fluorescence, cherrypicked samples, dose response (AID 2631).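 Also: confirmatory dose-response assay in RAS-dependent BJ fibroblasts engineered with TERT, LT and ST, with cytotoxicity read by fluorescence.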 In kind it is functional. To be noted: Homo sapiens.
The subject of assay [6] is BJ. Kind of assay: cells. The class given is functional, cell-based. To be noted: Homo sapiens.
In assay [7] the target is T2, Dual specificity protein phosphatase 3 (Homo sapiens, UniProt P51452). Kind of assay: VHR1 phosphatase inhibitors, biochemical (AID 1878).
The target of assay [8] is T3, Tyrosine-protein phosphatase non-receptor type 7 (Homo sapiens, UniProt P35236).
T3 sequence (P35236 whole entry): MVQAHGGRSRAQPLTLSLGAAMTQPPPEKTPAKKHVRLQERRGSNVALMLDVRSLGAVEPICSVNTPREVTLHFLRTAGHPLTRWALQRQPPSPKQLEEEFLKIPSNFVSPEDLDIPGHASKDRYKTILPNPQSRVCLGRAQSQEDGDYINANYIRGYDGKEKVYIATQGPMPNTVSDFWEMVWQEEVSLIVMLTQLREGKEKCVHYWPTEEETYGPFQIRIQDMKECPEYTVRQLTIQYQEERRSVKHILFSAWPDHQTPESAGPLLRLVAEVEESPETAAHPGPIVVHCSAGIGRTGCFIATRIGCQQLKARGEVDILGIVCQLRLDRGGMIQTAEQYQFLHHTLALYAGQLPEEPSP
The class given is functional.

The target of assay [9] is T2, Dual specificity protein phosphatase 3. Kind of assay: VHR1 phosphatase inhibitors, primary screen, biochemical, absorbance, uHTS (AID 1654).
Assay [10] can be described thus: DRD fibroblast viability loss – cell-based, non-viral oncogenic, luminescence, dose response (AID 1934). To be noted: Homo sapiens. In kind it is functional.
Assay [11] concerns the target T3, Tyrosine-protein phosphatase non-receptor type 7. The assay is described as follows: HePTP tyrosine phosphatase activity blockers – biochemical, absorbance, leukemia target, primary screen (AID 521). The class given is functional.
For assay [12], the target named is T4, Dual specificity protein phosphatase 6 (Rattus norvegicus, UniProt Q64346).
T4 sequence (Q64346 whole entry): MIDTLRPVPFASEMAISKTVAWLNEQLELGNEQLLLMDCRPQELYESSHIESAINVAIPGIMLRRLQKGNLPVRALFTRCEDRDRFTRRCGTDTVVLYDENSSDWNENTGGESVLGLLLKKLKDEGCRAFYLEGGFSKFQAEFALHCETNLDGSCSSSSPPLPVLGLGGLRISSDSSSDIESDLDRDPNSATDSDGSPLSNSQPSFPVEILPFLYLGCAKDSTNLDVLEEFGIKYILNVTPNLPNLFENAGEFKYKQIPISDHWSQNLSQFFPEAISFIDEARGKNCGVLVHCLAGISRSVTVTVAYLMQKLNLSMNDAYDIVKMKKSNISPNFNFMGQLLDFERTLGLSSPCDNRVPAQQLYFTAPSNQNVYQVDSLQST
Kind of assay: inhibition of rat DUSP6 enzyme activity – biochemical, in vitro, primary screen (AID 425).

In assay [13] the target is T5, Tyrosine-protein phosphatase non-receptor type 22 (Homo sapiens, UniProt Q9Y2R2). The class given is functional.
In assay [14] the test system is BJ. The assay is described as follows: BJ-TERT-LT-ST fibroblast viability loss – cell-based, RAS-independent, luminescence, dose response (AID 1935).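 Also: BJ fibroblasts immortalized with TERT plus LT and ST oncogenes.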 To be noted: Homo sapiens. The class given is functional.
Assay [15] has as its system BJ. The assay is described as follows: BJ-TERT fibroblast viability loss – cell-based, RAS-independent, luminescence, dose response (AID 1933). To be noted: Homo sapiens. In kind it is functional.
Assay [16] addresses T5, Tyrosine-protein phosphatase non-receptor type 22. In kind it is functional. This is another data set of the same source.
Assay [17] concerns the target Heat shock protein HSP 90-alpha (Homo sapiens, UniProt P07900). In kind it is functional, organism-based.

The source made the active and inactive calls.

T5 sequence (Q9Y2R2 whole entry): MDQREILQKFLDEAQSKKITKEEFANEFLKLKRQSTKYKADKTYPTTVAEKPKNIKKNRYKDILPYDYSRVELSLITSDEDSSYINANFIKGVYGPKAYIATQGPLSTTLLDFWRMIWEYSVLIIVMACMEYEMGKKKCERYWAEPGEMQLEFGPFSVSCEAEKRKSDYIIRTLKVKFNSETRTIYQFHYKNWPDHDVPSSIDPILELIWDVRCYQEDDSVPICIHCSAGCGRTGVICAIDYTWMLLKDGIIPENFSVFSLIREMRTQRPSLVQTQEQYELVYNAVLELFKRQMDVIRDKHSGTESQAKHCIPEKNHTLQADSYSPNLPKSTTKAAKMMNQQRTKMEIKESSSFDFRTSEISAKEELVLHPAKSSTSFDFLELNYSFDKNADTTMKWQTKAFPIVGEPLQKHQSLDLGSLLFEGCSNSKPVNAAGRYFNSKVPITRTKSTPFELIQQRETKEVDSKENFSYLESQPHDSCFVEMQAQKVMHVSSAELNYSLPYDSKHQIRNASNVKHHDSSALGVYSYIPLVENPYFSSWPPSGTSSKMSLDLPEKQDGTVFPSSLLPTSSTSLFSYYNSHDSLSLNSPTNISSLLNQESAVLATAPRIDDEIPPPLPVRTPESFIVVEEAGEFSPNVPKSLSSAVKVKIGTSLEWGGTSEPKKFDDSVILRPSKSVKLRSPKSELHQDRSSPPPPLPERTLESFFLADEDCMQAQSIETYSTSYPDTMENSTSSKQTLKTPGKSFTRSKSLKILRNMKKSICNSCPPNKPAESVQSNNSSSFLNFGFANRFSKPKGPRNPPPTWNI
T2 sequence (P51452 whole entry): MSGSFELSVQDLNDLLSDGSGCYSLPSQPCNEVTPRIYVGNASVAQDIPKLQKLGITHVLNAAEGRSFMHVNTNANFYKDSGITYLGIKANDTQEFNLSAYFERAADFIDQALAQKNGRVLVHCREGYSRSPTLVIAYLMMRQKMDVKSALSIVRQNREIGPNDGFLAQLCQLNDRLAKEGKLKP
Lysine-specific demethylase 4A, sequence (O75164 whole entry): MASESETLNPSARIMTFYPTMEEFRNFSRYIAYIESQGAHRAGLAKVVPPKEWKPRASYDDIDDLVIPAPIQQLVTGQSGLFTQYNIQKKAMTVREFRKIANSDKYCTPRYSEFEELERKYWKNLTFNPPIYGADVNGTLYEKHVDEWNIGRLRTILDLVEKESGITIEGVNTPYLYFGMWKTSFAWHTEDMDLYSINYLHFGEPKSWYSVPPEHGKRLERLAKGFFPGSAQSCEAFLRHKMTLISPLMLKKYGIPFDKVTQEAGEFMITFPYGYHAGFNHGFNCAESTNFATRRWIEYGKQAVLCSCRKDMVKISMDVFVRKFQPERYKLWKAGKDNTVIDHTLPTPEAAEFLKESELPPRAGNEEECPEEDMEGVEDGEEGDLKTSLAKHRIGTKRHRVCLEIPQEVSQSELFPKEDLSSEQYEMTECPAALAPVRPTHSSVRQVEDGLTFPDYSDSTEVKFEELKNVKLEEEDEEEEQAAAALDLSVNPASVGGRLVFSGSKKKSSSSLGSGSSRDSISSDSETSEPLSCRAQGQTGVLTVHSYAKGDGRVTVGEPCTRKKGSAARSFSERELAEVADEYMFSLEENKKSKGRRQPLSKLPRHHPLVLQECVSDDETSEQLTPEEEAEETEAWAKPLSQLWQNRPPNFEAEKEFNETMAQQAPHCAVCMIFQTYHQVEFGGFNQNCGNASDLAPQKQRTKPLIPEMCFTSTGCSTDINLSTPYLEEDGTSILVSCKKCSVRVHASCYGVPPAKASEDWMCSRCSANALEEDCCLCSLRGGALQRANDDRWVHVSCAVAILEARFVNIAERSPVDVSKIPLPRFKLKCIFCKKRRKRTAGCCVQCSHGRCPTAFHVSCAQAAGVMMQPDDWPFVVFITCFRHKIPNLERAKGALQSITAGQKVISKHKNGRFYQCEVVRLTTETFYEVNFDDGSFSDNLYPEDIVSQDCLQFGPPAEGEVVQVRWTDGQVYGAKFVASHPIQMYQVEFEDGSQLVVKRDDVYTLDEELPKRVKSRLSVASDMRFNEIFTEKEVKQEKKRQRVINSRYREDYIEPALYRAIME
CAAX prenyl protease 2, sequence (Q03530 whole entry): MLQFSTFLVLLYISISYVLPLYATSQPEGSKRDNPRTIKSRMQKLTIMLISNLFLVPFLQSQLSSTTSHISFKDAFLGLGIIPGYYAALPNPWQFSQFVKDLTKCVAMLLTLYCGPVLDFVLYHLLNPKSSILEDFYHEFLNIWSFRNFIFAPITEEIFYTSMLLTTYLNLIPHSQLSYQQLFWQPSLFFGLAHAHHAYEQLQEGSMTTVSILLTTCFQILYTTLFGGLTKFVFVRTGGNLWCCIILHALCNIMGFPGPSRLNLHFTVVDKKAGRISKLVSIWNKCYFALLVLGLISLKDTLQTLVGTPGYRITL
Nucleotide-binding oligomerization domain-containing protein 1, sequence (Q9Y239 whole entry, the tested form may be a part): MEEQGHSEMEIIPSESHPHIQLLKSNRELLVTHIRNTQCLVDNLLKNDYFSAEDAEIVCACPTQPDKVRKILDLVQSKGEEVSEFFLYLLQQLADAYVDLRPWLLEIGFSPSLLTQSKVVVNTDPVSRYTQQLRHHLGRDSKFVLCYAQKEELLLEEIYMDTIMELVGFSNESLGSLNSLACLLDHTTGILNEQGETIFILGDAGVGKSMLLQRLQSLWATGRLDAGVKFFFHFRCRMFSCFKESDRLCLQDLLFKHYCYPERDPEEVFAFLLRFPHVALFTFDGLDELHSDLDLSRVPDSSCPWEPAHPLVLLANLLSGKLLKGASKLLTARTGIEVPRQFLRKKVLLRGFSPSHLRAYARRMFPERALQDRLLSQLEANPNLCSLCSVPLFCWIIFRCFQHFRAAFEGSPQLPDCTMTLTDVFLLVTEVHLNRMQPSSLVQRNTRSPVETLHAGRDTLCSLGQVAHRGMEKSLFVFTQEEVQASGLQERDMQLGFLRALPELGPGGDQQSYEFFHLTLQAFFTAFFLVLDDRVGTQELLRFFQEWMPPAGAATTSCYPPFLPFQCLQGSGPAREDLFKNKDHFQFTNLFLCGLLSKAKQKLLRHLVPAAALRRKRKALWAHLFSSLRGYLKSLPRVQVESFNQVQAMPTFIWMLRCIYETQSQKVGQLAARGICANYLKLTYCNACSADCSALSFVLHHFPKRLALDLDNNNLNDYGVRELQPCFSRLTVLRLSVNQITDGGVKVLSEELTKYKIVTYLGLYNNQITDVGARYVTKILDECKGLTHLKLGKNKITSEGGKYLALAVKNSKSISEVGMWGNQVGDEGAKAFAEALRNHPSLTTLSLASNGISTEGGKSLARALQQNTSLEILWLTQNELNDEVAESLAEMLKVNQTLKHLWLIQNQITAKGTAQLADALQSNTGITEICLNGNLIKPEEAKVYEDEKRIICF
Tumor necrosis factor, sequence (P01375 whole entry, the tested form may be a part): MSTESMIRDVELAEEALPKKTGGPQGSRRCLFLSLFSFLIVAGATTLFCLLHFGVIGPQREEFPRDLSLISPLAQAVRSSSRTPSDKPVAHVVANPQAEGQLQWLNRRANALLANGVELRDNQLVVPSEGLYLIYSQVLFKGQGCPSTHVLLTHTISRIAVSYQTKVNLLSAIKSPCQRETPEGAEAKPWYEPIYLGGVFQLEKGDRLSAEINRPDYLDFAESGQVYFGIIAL
CAAX prenyl protease 1, sequence (P47154 whole entry): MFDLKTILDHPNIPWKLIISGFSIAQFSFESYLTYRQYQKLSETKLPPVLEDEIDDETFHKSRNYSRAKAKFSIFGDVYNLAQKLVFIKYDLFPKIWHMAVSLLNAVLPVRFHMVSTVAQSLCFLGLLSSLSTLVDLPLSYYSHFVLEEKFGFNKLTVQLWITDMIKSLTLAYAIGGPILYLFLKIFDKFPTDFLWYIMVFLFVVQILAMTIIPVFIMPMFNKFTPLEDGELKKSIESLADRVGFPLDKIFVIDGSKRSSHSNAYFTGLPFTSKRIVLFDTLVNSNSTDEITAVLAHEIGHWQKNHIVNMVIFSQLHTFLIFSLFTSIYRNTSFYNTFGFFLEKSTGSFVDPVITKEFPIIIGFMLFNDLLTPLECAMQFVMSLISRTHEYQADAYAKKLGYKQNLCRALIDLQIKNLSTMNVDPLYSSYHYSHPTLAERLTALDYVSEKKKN
Nucleotide-binding oligomerization domain-containing protein 2, sequence (Q9HC29 whole entry, the tested form may be a part): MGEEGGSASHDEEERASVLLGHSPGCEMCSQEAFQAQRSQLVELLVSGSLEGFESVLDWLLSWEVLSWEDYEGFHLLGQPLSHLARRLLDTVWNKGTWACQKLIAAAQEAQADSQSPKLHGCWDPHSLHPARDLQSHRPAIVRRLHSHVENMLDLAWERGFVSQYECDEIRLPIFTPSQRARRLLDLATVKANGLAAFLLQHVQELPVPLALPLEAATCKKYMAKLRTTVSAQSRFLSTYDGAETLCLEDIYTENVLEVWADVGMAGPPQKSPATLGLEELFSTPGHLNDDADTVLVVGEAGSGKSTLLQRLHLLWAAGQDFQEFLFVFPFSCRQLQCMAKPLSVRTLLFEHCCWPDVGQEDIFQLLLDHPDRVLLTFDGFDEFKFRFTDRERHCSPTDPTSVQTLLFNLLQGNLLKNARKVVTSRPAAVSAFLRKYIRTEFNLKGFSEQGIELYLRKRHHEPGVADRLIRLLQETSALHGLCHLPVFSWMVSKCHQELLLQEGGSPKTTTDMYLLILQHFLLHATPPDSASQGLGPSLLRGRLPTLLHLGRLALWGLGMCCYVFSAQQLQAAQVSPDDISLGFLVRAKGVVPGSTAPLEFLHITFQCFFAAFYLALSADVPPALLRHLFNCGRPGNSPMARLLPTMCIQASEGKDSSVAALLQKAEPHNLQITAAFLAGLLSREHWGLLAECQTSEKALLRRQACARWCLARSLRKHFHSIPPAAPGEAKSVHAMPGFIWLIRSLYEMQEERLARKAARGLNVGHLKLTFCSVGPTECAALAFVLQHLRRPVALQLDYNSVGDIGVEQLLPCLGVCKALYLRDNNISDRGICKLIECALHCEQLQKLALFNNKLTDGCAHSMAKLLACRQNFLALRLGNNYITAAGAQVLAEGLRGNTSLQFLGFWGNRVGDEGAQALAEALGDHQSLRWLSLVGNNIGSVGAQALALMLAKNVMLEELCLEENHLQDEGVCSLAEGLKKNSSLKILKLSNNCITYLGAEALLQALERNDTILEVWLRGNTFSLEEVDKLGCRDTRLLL

On to `COc1ccc(N2CCN(C(=O)c3cc(-c4cccs4)nc4ccccc34)CC2)cc1`, for which the AC50 at CAAX prenyl protease 2 was 4.06 µM (active); on CAAX prenyl protease 1, 47.6 µM (active).

For the compound `CCCCOc1ccc(CC2C(=O)N(C)C(=O)N(C)C2=O)cc1`, the AC50 in [1] was 12.5 µM (active); in assay [2], 1.76 µM (active).

As to `Cc1cc(C(=O)NC2CCCc3c2cnn3-c2ccccc2F)[nH]n1` (stereo unspecified), the IC50 (in the assay on HEK293; at Tumor necrosis factor; in assay [3]; in assay [4]) was > 20 µM (inactive) in each case.

Take `O=C(c1cccs1)c1no[n+]([O-])c1C(=O)c1cccs1`: the EC50 was 3.9 µM (inconclusive) in the assay with BJ [5]; 3.58 µM (active) in the assay with BJ [6]; 2.78 µM (inconclusive) in [10]; 7.28 µM (inconclusive) in the assay with BJ [14]; 0.803 µM (active) in the assay on BJ [15]. For the same compound, the IC50 is 7.48 µM (active) in assay [7]; 4.5 µM (active) in assay [8]; < 0.98 µM (inactive) in assay [9]; > 100 µM (not active) in assay [11]; 141 µM (not active) in [12]; < 1.24 µM (active) in assay [13]. The IC50 in assay [16] was 2.39 µM (active). For the same compound, the half-maximal activity concentration (AC50) in assay [17] is 3.5 µM (active).

Broadly, the AC50 is the midpoint of the concentration-response curve, whichever way the signal moves. The term IC50 denotes the concentration needed to halve the response being measured. The term EC50 denotes the concentration needed to bring the measured effect to its halfway point.
